Test results as given in patent US5036081A, “Calcium absorption promoter” (Takeda Chemical Industries, Ltd., priority 1988, dated 1991).

What was measured:
[1] = test system: bone resorption (antebrachial bones, radius and ulna, of a fetus); experiment: tissue or blood; assay type: cell-based, Sprague-Dawley rat; conditions: for ^45 Ca released into medium: 2 days, mean ± S.D. (n = 5)
Experimental: Effect of N-(1,3-dihydroxy-2-propyl)valiolamine and 1,25(OH)2 vitamin D3 on bone resorption
The bone resorption rate was determined by the method of Raisz (J. Clin. Invest. 44, 103-116, 1965). Thus, one Sprague-Dawley rat on day 18 of gestation was subcutaneously dosed with 50 μCi of ^45 Ca (an isotope of calcium, in CaCl2) and laparotomy was performed on the next day. The fetuses were aseptically taken out and under a dissecting microscope, the bilateral antebrachial bones (radius and ulna) of a fetus were cut off from the trunk. The connective tissues and cartilages were removed as much as possible to prepare a sample for bone culture. Each piece of bone was cultured in 0.6 ml of BGJb medium (Fitton-Jackson modification, GIBCO Laboratories, U.S.A., supplemented with 2 mg/ml of bovine serum albumin) at 37° C. for 24 hours and after addition of AO-128 at a final concentration of 10 μg/ml or 1,25(OH)2 vitamin D3 at a concentration of 0.8 pg/ml, was further incubated in the same medium for 2 days. The ^45 Ca radioactivity in the medium and that in the bone were respectively counted and the rate (%) of ^45 Ca release from the bone into the medium was calculated by means of the following equation. [formula]
The bones from another fetus of the same litter were incubated without addition of the test compounds for 2 days as controls. The means±S.D. of values found from 5 pieces of bone in each group was calculated and the percentage (%) of the mean value relative to the mean value of the control group was calculated.

[2] = Acute oral toxicity in mice; conditions: mouse, in vivo, mice (NRMI)
[3] = Acute oral toxicity in rats; conditions: rat, in vivo, rats (Wistar)
[4] = Dietary calcium absorption promoting effect in rats (medicated diet; body weight, food consumption, urinary and plasma calcium); assay type: in vivo, male rats (Jcl: SD); conditions: for Body weight / Plasma calcium / Food consumption / Urinary calcium: mean ± S.D., n=6; for Urinary calcium: ** = 1% level of significance vs control
Source text: Dietary calcium absorption promoting effect of N-(1,3-dihydroxy-2-propyl)valiolamine in rats
Five-week-old male rats (Jcl: SD) were divided into 2 groups and one group (control group) was given a regular diet (CE-2. Japan Clea Co.) while the other group was put on a medicated diet, i.e. CE-2 supplemented with N-(1,3-dihydroxy-2-propyl)valiolamine (AO-128). The level of addition of AO-128 was 10 ppm during the first 10 days and 25 ppm during the subsequent 7 days. On days 3, 10 and 17 of feeding, the body weight, food consumption, urinary calcium excretion, and plasma calcium concentration were determined.

[5] = Exogenous calcium absorption promoting effect in rats (oral sucrose + calcium carbonate load, 24 hr urinary calcium); assay type: in vivo, male rats (Jcl: SD); conditions: for Urinary calcium: sucrose 2.5 g/kg, calcium carbonate 400 mg/kg, 24 hr urine, mean ± S.D.
Experimental: Exogenous calcium absorption promoting effect of N-(1,3-dihydroxy-2-propyl)valiolamine in rats
Eight-week-old male rats (Jcl: SD) fasted for 20 hours were orally dosed with 72.5% sucrose aqueous solution [2.5 g (sucrose)/kg (body weight)], 5% calcium carbonate aqueous suspension [400 mg (CaCO3)/kg (body weight)] and 0.015, 0.05 or 0.15% aqueous AO-128 solution [0.3, 1.0 or 3.0 mg ((AO-128)/kg (body weight)] and the 24 hr urine was collected for the determination of urinary calcium. The animals were deprived of food during urine collection but had free access to water. The results are shown in Table 2.

[6] = Day 17, 10 ppm first 10 days then 25 ppm 7 days in diet

In the case of C=C1/C(=C\C=C2/CCC[C@]3(C)[C@@H]([C@H](C)CCCC(C)(C)O)CC[C@@H]23)C[C@@H](O)C[C@@H]1O [1,25(OH)2 vitamin D3, reference compound], the “^45 Ca released into medium” value ([1]; 0.8 pg/ml, control 12.3 ± 2.2, *p < 0.001) was 26.6 ± 2.2% and the fold induction at 800 fg/mL ([1]; Rattus norvegicus, 48 h, read-out: increase in the release of ^45 Ca into the medium) was 2.2.
In the case of OCC(CO)N[C@H]1C[C@](O)(CO)[C@@H](O)[C@H](O)[C@H]1O [AO-128, N-(1,3-dihydroxy-2-propyl)valiolamine], the “effect on bone resorption (in words)” value ([1]; 10 μg/ml) was “no change”, the “^45 Ca released into medium” value ([1]; 10 μg/ml, control 12.7 ± 3.2) was 12.6 ± 2.5% and the LD50 [2] was 14700 to 21500 mg/kg. The LD50 [3] was roughly 20000 mg/kg, the “body weight gain (in words)” value ([4]; AO-128 group, diet 10 then 25 ppm) was “a tendency of suppressed body weight gain” and the Body weight ([4]; Day 3, 10 ppm in diet) was 143 ± 7 g. For the same compound, the Plasma calcium ([4]; Day 3, 10 ppm in diet) was 10.8 ± 0.5 mg/dL, the Food consumption ([4]; Day 3, 10 ppm in diet, * = 5% level of significance vs control) was 12.7 ± 1.7 g/day and the Urinary calcium ([4]; Day 3, 10 ppm in diet) was 1.99 ± 0.67 mg/day. The Body weight ([4]; Day 10, 10 ppm in diet) was 176 ± 8 g, the Food consumption ([4]; Day 10, 10 ppm in diet) was 22.7 ± 2.3 g/day and the Plasma calcium ([4]; Day 10, 10 ppm in diet) was 10.3 ± 0.5 mg/dL. The Urinary calcium ([4]; Day 10, 10 ppm in diet) was 2.10 ± 0.54 mg/day, the Body weight [4, 6] was 250 ± 14 g and the Food consumption [4, 6] was 24.5 ± 2.0 g/day. The Plasma calcium [4, 6] was 9.9 ± 0.3 mg/dL, the “urinary calcium excretion (in words)” value ([4]; all determination days) was “increases” and the “food consumption (in words)” value ([4]; day 3) was “slight decrease on day 3”. The “food consumption (in words)” value ([4]; day 10) was “recovery on day 10”, the “food consumption (in words)” value ([4]; day 17) was “a tendency of increase in day 17” and the “plasma calcium concentration (in words)” value ([4]; days 3, 10 and 17) was “no significant change”. For the same compound, the Urinary calcium ([5]; AO-128 0.3 mg/kg oral, n=7) was 311 ± 214 µg/day, the Urinary calcium ([5]; AO-128 1.0 mg/kg oral, n=6, * = 2% level of significance vs control) was 441 ± 172 µg/day and the Urinary calcium ([5]; AO-128 3.0 mg/kg oral, n=6, ** = 1% level of significance vs control) was 517 ± 195 µg/day. The “absorption of calcium (in words)” value ([5]; administered concurrently with a carbohydrate and calcium, based on the two experiments) was “increases the absorption of calcium” and the “urinary calcium (in words)” value ([5]; concurrent with calcium carbonate and sucrose) was “dose-dependent increase”.
